Experiments:
[1] = system: Canine Bronchial Epithelial Cells; assay: Durability of retention of airway surface liquid; type: cell-based
[2] = system: Human Bronchial Epithelial; assay: Metabolism by human bronchial epithelial cells; type: in vitro ADME; conditions: apical or basolateral
Description: Airway epithelial cells have the capacity to metabolize drugs during the process of transepithelial absorption. Further, although less likely, it is possible that drugs can be metabolized on airway epithelial surfaces by specific ectoenzyme activities. Perhaps more likely as an ecto-surface event, compounds may be metabolized by the infected secretions that occupy the airway lumens of patients with lung disease, e.g. cystic fibrosis. Thus, a series of assays is performed to characterize the compound metabolism that results from the interaction of test compounds with human airway epithelia and/or human airway epithelial lumenal products.
In the first series of assays, the interaction of test compounds in KBR as an “ASL” stimulant are applied to the apical surface of human airway epithelial cells grown in the T-Col insert system. For most compounds, metabolism (generation of new species) is tested for using high performance liquid chromatography (HPLC) to resolve chemical species and the endogenous fluorescence properties of these compounds to estimate the relative quantities of test compound and novel metabolites. […] In instances where the fluorescence properties of the test molecule are not adequate for such characterizations, radiolabeled compounds are used for these assays. […]

Compound: CN(C)C(=O)[C@H](CCCCNC(=N)N)NC(=O)[C@H](CCc1ccc(CCCCNC(=N)NC(=O)c2nc(Cl)c(N)nc2N)cc1)N(C)C [Compound I, 3,5-diamino-6-chloro-N-(N-(4-(4-((S)-3-(dimethylamino)-4-((S)-1-(dimethylamino)-6-guanidino-1-oxohexan-2-ylamino)-4-oxobutyl)phenyl)butyl)carbamimidoyl)pyrazine-2-carboxamide]
- Durability of Retention of Airway Surface Liquid, fluid retained ([1]; 8 hours after drug delivery, n=3): 94±5%
- Durability of Retention of Airway Surface Liquid, fluid retained ([1]; 24 hours after drug delivery, n=2): 56±6%
- Metabolism by Human Bronchial Epithelial [2]: No metabolites detected

Reference: patent US10159672B2 (PARION SCIENCES, INC., priority 2011, dated 2018)
